In PubChem BioAssay (NCI):
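Test compounds were applied to cells in 96-well plates for 48 hours at 5 doses. At the TGI there is no net growth.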

Legend:
Assay in all cases: DTP human tumour cell line panel, 48 h
786-0 renal = tested on: 786-0 renal
A498 renal = tested on: A498 renal
A549 NSCLC = tested on: A549 NSCLC
ACHN renal = tested on: ACHN renal
CAKI-1 renal = tested on: CAKI-1 renal
CCRF-CEM leukemia = tested on: CCRF-CEM leukemia
COLO 205 colon = tested on: COLO 205 colon
DLD-1 colon = tested on: DLD-1 colon
DMS 114 small cell lung = tested on: DMS 114 small cell lung
DMS 273 small cell lung = tested on: DMS 273 small cell lung
EKVX NSCLC = tested on: EKVX NSCLC
HCC-2998 colon = tested on: HCC-2998 colon
HCT-15 colon = tested on: HCT-15 colon
HL-60(TB) leukemia = tested on: HL-60(TB) leukemia
HOP-18 NSCLC = tested on: HOP-18 NSCLC
HOP-92 NSCLC = tested on: HOP-92 NSCLC
HT29 colon = tested on: HT29 colon
IGROV1 ovarian = tested on: IGROV1 ovarian
K-562 leukemia = tested on: K-562 leukemia
KM12 colon = tested on: KM12 colon
KM20L2 colon = tested on: KM20L2 colon
LOX IMVI melanoma = tested on: LOX IMVI melanoma
LXFL 529 NSCLC = tested on: LXFL 529 NSCLC
M14 melanoma = tested on: M14 melanoma
M19-MEL melanoma = tested on: M19-MEL melanoma
MALME-3M melanoma = tested on: MALME-3M melanoma
MOLT-4 leukemia = tested on: MOLT-4 leukemia
NCI-H226 lung = tested on: NCI-H226 lung
NCI-H23 lung = tested on: NCI-H23 lung
NCI-H460 lung = tested on: NCI-H460 lung
NCI-H522 lung = tested on: NCI-H522 lung
OVCAR-3 ovarian = tested on: OVCAR-3 ovarian
OVCAR-4 ovarian = tested on: OVCAR-4 ovarian
OVCAR-5 ovarian = tested on: OVCAR-5 ovarian
RXF 393 renal = tested on: RXF 393 renal
RXF-631 renal = tested on: RXF-631 renal
SF-268 CNS = tested on: SF-268 CNS
SF-295 CNS = tested on: SF-295 CNS
SF-539 CNS = tested on: SF-539 CNS
SK-MEL-2 melanoma = tested on: SK-MEL-2 melanoma
SK-MEL-28 melanoma = tested on: SK-MEL-28 melanoma
SK-MEL-5 melanoma = tested on: SK-MEL-5 melanoma
SK-OV-3 ovarian = tested on: SK-OV-3 ovarian
SNB-19 CNS = tested on: SNB-19 CNS
SNB-75 CNS = tested on: SNB-75 CNS
SW-620 colon = tested on: SW-620 colon
TK-10 renal = tested on: TK-10 renal
UACC-257 melanoma = tested on: UACC-257 melanoma
UACC-62 melanoma = tested on: UACC-62 melanoma
UO-31 renal = tested on: UO-31 renal
HCT-116 colon = tested on: HCT-116 colon
HOP-62 NSCLC = tested on: HOP-62 NSCLC
OVCAR-8 ovarian = tested on: OVCAR-8 ovarian
SN12C renal = tested on: SN12C renal
SNB-78 CNS = tested on: SNB-78 CNS
SR leukemia = tested on: SR leukemia
U251 CNS = tested on: U251 CNS
RPMI-8226 leukemia = tested on: RPMI-8226 leukemia
XF 498 CNS = tested on: XF 498 CNS

COC(=O)C(=O)C(C(=O)C(=O)Nc1cccc(C(C)=O)c1)c1nc2ccccc2[nH]c1=O (centres undefined)
TGI (786-0 renal): > 100 µM | TGI (A498 renal): > 100 µM | TGI (A549 NSCLC): > 100 µM | TGI (ACHN renal): > 100 µM | TGI (CAKI-1 renal): > 100 µM | TGI (CCRF-CEM leukemia): > 100 µM | TGI (COLO 205 colon): > 100 µM | TGI (DLD-1 colon): > 100 µM | TGI (DMS 114 small cell lung): > 100 µM | TGI (DMS 273 small cell lung): > 100 µM | TGI (EKVX NSCLC): > 100 µM | TGI (HCC-2998 colon): > 100 µM | TGI (HCT-15 colon): > 100 µM | TGI (HL-60(TB) leukemia): > 100 µM | TGI (HOP-18 NSCLC): > 100 µM | TGI (HOP-92 NSCLC): > 100 µM | TGI (HT29 colon): > 100 µM | TGI (IGROV1 ovarian): > 100 µM | TGI (K-562 leukemia): > 100 µM | TGI (KM12 colon): > 100 µM | TGI (KM20L2 colon): > 100 µM | TGI (LOX IMVI melanoma): > 100 µM | TGI (LXFL 529 NSCLC): > 100 µM | TGI (M14 melanoma): > 100 µM | TGI (M19-MEL melanoma): > 100 µM | TGI (MALME-3M melanoma): > 100 µM | TGI (MOLT-4 leukemia): > 100 µM | TGI (NCI-H226 lung): > 100 µM | TGI (NCI-H23 lung): > 100 µM | TGI (NCI-H460 lung): > 100 µM | TGI (NCI-H522 lung): > 100 µM | TGI (OVCAR-3 ovarian): > 100 µM | TGI (OVCAR-4 ovarian): > 100 µM | TGI (OVCAR-5 ovarian): > 100 µM | TGI (RXF 393 renal): > 100 µM | TGI (RXF-631 renal): > 100 µM | TGI (SF-268 CNS): > 100 µM | TGI (SF-295 CNS): > 100 µM | TGI (SF-539 CNS): > 100 µM | TGI (SK-MEL-2 melanoma): > 100 µM | TGI (SK-MEL-28 melanoma): > 100 µM | TGI (SK-MEL-5 melanoma): > 100 µM | TGI (SK-OV-3 ovarian): > 100 µM | TGI (SNB-19 CNS): > 100 µM | TGI (SNB-75 CNS): > 100 µM | TGI (SW-620 colon): > 100 µM | TGI (TK-10 renal): > 100 µM | TGI (UACC-257 melanoma): > 100 µM | TGI (UACC-62 melanoma): > 100 µM | TGI (UO-31 renal): > 100 µM

C/C(=N\N(c1ccccc1)c1ccccc1)c1c(O)cc(C)oc1=O
TGI (786-0 renal): > 100 µM | TGI (A498 renal): > 100 µM | TGI (A549 NSCLC): > 100 µM | TGI (ACHN renal): > 100 µM | TGI (CAKI-1 renal): > 100 µM | TGI (CCRF-CEM leukemia): > 100 µM | TGI (DLD-1 colon): > 100 µM | TGI (EKVX NSCLC): > 100 µM | TGI (HCC-2998 colon): > 100 µM | TGI (HCT-116 colon): > 100 µM | TGI (HCT-15 colon): > 100 µM | TGI (HOP-18 NSCLC): > 100 µM | TGI (HOP-62 NSCLC): > 100 µM | TGI (HOP-92 NSCLC): > 100 µM | TGI (HT29 colon): > 100 µM | TGI (K-562 leukemia): > 100 µM | TGI (KM12 colon): > 100 µM | TGI (KM20L2 colon): > 100 µM | TGI (LOX IMVI melanoma): > 100 µM | TGI (LXFL 529 NSCLC): > 100 µM | TGI (M14 melanoma): > 100 µM | TGI (M19-MEL melanoma): > 100 µM | TGI (MALME-3M melanoma): > 100 µM | TGI (MOLT-4 leukemia): > 100 µM | TGI (NCI-H226 lung): > 100 µM | TGI (NCI-H23 lung): > 100 µM | TGI (NCI-H460 lung): > 100 µM | TGI (NCI-H522 lung): > 100 µM | TGI (OVCAR-4 ovarian): > 100 µM | TGI (OVCAR-8 ovarian): > 100 µM | TGI (SF-268 CNS): > 100 µM | TGI (SF-295 CNS): > 100 µM | TGI (SF-539 CNS): > 100 µM | TGI (SK-MEL-2 melanoma): > 100 µM | TGI (SK-MEL-28 melanoma): > 100 µM | TGI (SK-OV-3 ovarian): > 100 µM | TGI (SN12C renal): > 100 µM | TGI (SNB-19 CNS): > 100 µM | TGI (SNB-75 CNS): > 100 µM | TGI (SNB-78 CNS): > 100 µM | TGI (SR leukemia): > 100 µM | TGI (SW-620 colon): > 100 µM | TGI (TK-10 renal): > 100 µM | TGI (U251 CNS): > 100 µM | TGI (UACC-257 melanoma): > 100 µM | TGI (UACC-62 melanoma): > 100 µM | TGI (UO-31 renal): > 100 µM

COC(=O)/C(=N\NC(C)(C)C)C(C(=O)C(=O)Nc1cc(C)ccc1C)c1nc2ccccc2[nH]c1=O (centres undefined)
TGI (A498 renal): > 100 µM | TGI (ACHN renal): > 100 µM | TGI (CAKI-1 renal): > 100 µM | TGI (CCRF-CEM leukemia): > 100 µM | TGI (COLO 205 colon): > 100 µM | TGI (DLD-1 colon): > 100 µM | TGI (EKVX NSCLC): > 100 µM | TGI (HL-60(TB) leukemia): > 100 µM | TGI (HOP-62 NSCLC): > 100 µM | TGI (HOP-92 NSCLC): > 100 µM | TGI (HT29 colon): > 100 µM | TGI (IGROV1 ovarian): > 100 µM | TGI (K-562 leukemia): > 100 µM | TGI (KM12 colon): > 100 µM | TGI (KM20L2 colon): > 100 µM | TGI (LOX IMVI melanoma): > 100 µM | TGI (MOLT-4 leukemia): > 100 µM | TGI (NCI-H226 lung): > 100 µM | TGI (NCI-H23 lung): > 100 µM | TGI (OVCAR-4 ovarian): > 100 µM | TGI (OVCAR-5 ovarian): > 100 µM | TGI (OVCAR-8 ovarian): > 100 µM | TGI (RPMI-8226 leukemia): > 100 µM | TGI (SF-295 CNS): > 100 µM | TGI (SF-539 CNS): > 100 µM | TGI (SK-MEL-5 melanoma): > 100 µM | TGI (SN12C renal): > 100 µM | TGI (SNB-19 CNS): > 100 µM | TGI (SNB-75 CNS): > 100 µM | TGI (SR leukemia): > 100 µM | TGI (SW-620 colon): > 100 µM | TGI (TK-10 renal): > 100 µM | TGI (UACC-257 melanoma): > 100 µM | TGI (UACC-62 melanoma): > 100 µM

CCOC(=O)C1(C#N)C(c2ccccc2)CC(O)(c2ccc(Cl)cc2)C(C(=O)c2ccc(Cl)cc2)C1c1ccccc1 (centres undefined)
TGI (786-0 renal): > 100 µM | TGI (A549 NSCLC): > 100 µM | TGI (ACHN renal): > 100 µM | TGI (CAKI-1 renal): > 100 µM | TGI (CCRF-CEM leukemia): > 100 µM | TGI (COLO 205 colon): > 100 µM | TGI (DLD-1 colon): > 100 µM | TGI (DMS 114 small cell lung): > 100 µM | TGI (DMS 273 small cell lung): > 100 µM | TGI (EKVX NSCLC): > 100 µM | TGI (HCC-2998 colon): > 100 µM | TGI (HCT-116 colon): > 100 µM | TGI (HCT-15 colon): > 100 µM | TGI (HL-60(TB) leukemia): > 100 µM | TGI (HOP-18 NSCLC): > 100 µM | TGI (HOP-62 NSCLC): > 100 µM | TGI (HT29 colon): > 100 µM | TGI (IGROV1 ovarian): > 100 µM | TGI (KM12 colon): > 100 µM | TGI (KM20L2 colon): > 100 µM | TGI (LOX IMVI melanoma): > 100 µM | TGI (LXFL 529 NSCLC): > 100 µM | TGI (M14 melanoma): > 100 µM | TGI (M19-MEL melanoma): > 100 µM | TGI (MALME-3M melanoma): > 100 µM | TGI (MOLT-4 leukemia): > 100 µM | TGI (NCI-H226 lung): > 100 µM | TGI (NCI-H23 lung): > 100 µM | TGI (NCI-H460 lung): > 100 µM | TGI (NCI-H522 lung): > 100 µM | TGI (OVCAR-3 ovarian): > 100 µM | TGI (OVCAR-4 ovarian): > 100 µM | TGI (OVCAR-5 ovarian): > 100 µM | TGI (OVCAR-8 ovarian): > 100 µM | TGI (RPMI-8226 leukemia): > 100 µM | TGI (RXF 393 renal): > 100 µM | TGI (SF-268 CNS): > 100 µM | TGI (SF-295 CNS): > 100 µM | TGI (SK-MEL-2 melanoma): > 100 µM | TGI (SK-MEL-28 melanoma): > 100 µM | TGI (SK-MEL-5 melanoma): > 100 µM | TGI (SK-OV-3 ovarian): > 100 µM | TGI (SN12C renal): > 100 µM | TGI (SNB-19 CNS): 90.8 µM | TGI (SNB-75 CNS): 48.9 µM | TGI (SNB-78 CNS): > 100 µM | TGI (SR leukemia): > 100 µM | TGI (SW-620 colon): > 100 µM | TGI (TK-10 renal): > 100 µM | TGI (UACC-257 melanoma): > 100 µM | TGI (UACC-62 melanoma): > 100 µM | TGI (UO-31 renal): > 100 µM | TGI (XF 498 CNS): > 100 µM
